According to patent publication US20220125839A1, “COMBINATION OF T-CELL THERAPY AND TARGETED THERAPY FOR TREATING THERAPY-RESISTANT MELANOMA WITH MUTATIONS IN THE BRAF GENE” (H. LEE MOFFITT CANCER CENTER AND RESEARCH INSTITUTE, INC., priority 2019, published 2022):

Experiments:
WM983B-M6PR-KO cells = experiment: CTL assay (51Cr release), WM983B-M6PR-KO targets with TILs; assay type: cell-based, human; conditions: WM983B-M6PR-KO treated ON with PLX4720
Description: For Chromium (^51Cr) release assays, 1×10^6 human melanoma cells were incubated with 100 μCi ^51Cr (Perkin-Elmer; Cat. no. NEZ030S001MC; 1 mCi/mL) at 37° C. for 60 minutes, washed 3 times with sterile PBS and plated into 96-well round-bottom plates at a cell density of 1×10^4 tumor target cells/well. Target cells were incubated with human CD8+ TILs in triplicates at the indicated effector/target ([…]) ratios in 200 μl culture medium at 37° C. in a humidified CO2 incubator. After incubation, plates were centrifuged, 50 μl supernatant was harvested from each well and ^51Cr release was measured using a gamma counter. The percent specific lysis was calculated as follows: 100×[(experimental release−spontaneous release)/(maximum release−spontaneous release)]. As controls, T cells isolated from blood of healthy donor were used.
To investigate if M6PR has a direct role in the increased uptake of GrzB induced by PLX4720, we generated a WM983B-M6PR-KO cell line lacking M6PR expression, using Crispr/Cas9 technology. Deletion of M6PR was confirmed by western blotting (FIG. 8A) and flow cytometry (FIG. 8B). WM983B and WM983B-M6PR-KO cells were cultured with DMSO or different concentrations of PLX4720. […] We evaluated expression of MHC class I, MHC class II, PDL1, and FasL on tumor cells with overexpression or deletion of M6PR.

WM35-BR cells = experiment: Tumor growth of WM35-BR xenografts in NOD/SCID mice; assay type: in vivo; conditions: PLX4720 50 mg/kg for 10 days, TIL i.v. twice at a 4 day interval
Description: (§1) In order to establish xenograft models, cultured WM35, WM35-BR, WM983B-BR-pAHygCMV2 and WM983B-BR-M6PR/IGF2R cells were harvested, suspended in sterile PBS, mixed in 2:1 ratio with Matrigel and injected subcutaneously into the left flank of mice (1-3×10^6 cells per mouse). PLX4720 was administered daily at dose 50 mg/kg for 10 days via oral gavage. As a control, mice treated with vehicle alone (2% DMSO, 50% PEG 300, 5% Tween 80) were used. Treatments were started when tumors were 0.5-0.8 cm in diameter.
We next tested whether PLX-induced M6PR up-regulation on the cell surface of resistant cells sensitized them to HLA-matched TIL. […] We asked whether BRAFi could sensitize resistant tumors to TILs in vivo. WM35-BR cells were injected subcutaneously to the flanks of immune deficient NOD/SCID mice and when tumors became palpable, mice were split to 4 groups. Mice treated with vehicle alone, mice treated with 50 mg/kg PLX4720 for 10 days, mice treated with CD8+ T-cell enriched TIL i.v. twice at a 4 day interval and mice treated with combination of PLX4720 and TILs.

M6PR = experiment: IHC staining of M6PR in WM35 tumors in NOD/SCID mice; assay type: in vivo; conditions: for tumor M6PR levels by immunohistochemistry: 50 mg/kg oral gavage
Description: as §1
Tumor tissues were harvested, fixed overnight with 4% paraformaldehyde (Electron Microscopy Science; Cat. no. 15710) at 4° C., embedded in paraffin blocks and 4-5 μm thick sections of the tissue were prepared and stained with polyclonal goat M6PR/IGF2R primary antibody (R&D Systems; Cat. no. AF2447; 5 μg/mL per samples) O/N at 4° C. Biotinylated 2nd antibody in 1:200 dilution was used for 30 min at RT followed by application of ABC solution ([…] and biotinylated horseradish peroxidase) for 30 min at RT. DAB 0.05% solution was applied for 3-4 min at RT. Hematoxylin was used for counterstaining the nucleus. Images were analyzed using Nis-Elements Ar (Advanced Research) Nikon 80i Upright Microscope with 40×N.A. objective. Each slide was scanned, images were manually captured at separate X, Y locations and a multipoint ND document was created point by point. A threshold value was defined for each image (for brown M6PR staining) using the single point selection tool. Results were exported to Excel for further analysis. (Acquisition Software: Nikon NIS-Elements Br (Basic research) 4.0, Camera Name: DS-Ri1-U3 40× Objective, Numerical Aperture: 0.95, Camera Settings: Format: 1280×1024 Fine, Exposure: ME 80 ms (−+0.0 EV))
Since hypoxia is an important component of the tumor microenvironment, we evaluated the effect of hypoxia on PLX4720-induced M6PR up-regulation. WM983B melanoma cells were exposed to 0.5% 02 during PLX4720 treatment. […] To understand the effect of PLX4720 on M6PR expression in vivo, WM35 tumor cells were injected s.c. into immune deficient NOD/SCID mice. When tumors reached 0.5-0.8 cm in diameter, mice were treated with vehicle or 50 mg/kg PLX4720 by oral gavage for 3 or 5 consecutive days.

WM35 cells = experiment: Granzyme B (GrzB) uptake by WM35 cells; assay type: cell-based, human; conditions: overnight PLX4720, then inactive GrzB for an hour
Description: Cells were then stained with Aqua dead cell staining kit (Thermo Fischer Scientific) for 15 min at 4° C. fixed in fixation buffer (BD Cytofix/Cytoperm; Cat. no. 51-2090). Granzyme B antibody (Cat. no. 561142) or its isotype control (BD Bioscience; Cat. no. 555749) were used. Stained cells were run on LSR14. Data was analyzed by FlowJo software (Tree Star).

CCCS(=O)(=O)Nc1ccc(F)c(C(=O)c2c[nH]c3ncc(Cl)cc23)c1F [PLX4720]
killing of tumor cells by TILs (WM983B-M6PR-KO cells): this effect was not observed | tumor growth (WM35-BR cells): did not affect tumor growth | tumor M6PR levels by immunohistochemistry (M6PR; 3 days after start of the treatment): significant increase in tumor M6PR levels | tumor M6PR levels by immunohistochemistry (M6PR; 5 days after start (2 days later)): further increased | tumor M6PR expression after finish of the treatment (M6PR; 3 days after finish of the treatment): remained high | tumor M6PR expression after finish of the treatment (M6PR; day 6 after finish): slight decrease | tumor M6PR expression after finish of the treatment (M6PR; day 9 after finishing the treatment): returned to the pretreatment level | GrzB uptake by tumor cells (WM35 cells): significant up-regulation of GrzB uptake
